In patent publication US9273095B2, “Antibiotic peptide and preparation method therefor and application therefor” (priority 2011, dated 2016):
Like-named read-outs stand apart in the source and are kept apart here. Non-standard residues stand in square brackets, D forms with d. No end group written: not given here.

Legend:
candida krusei = test: microbe, parasite or virus in culture; format: cell-based
Source text: • (1) Test strains: monilia albicans (candida albicans), candida glabrata, candida krusei, candida tropicalis, aspergillus fumigatus and flavous. (2) Quality control strains: candida krusei JLC30366 (ATCC6258). Antimicrobial peptides PL-13 (SEQ ID NO: 1) under test are supplied by Jiangsu ProteLight Pharmaceutical & Biotechnology Co., LTD. […] (1) The bacterial strains which preserved on PDA slant are respectively inoculated onto PDA plate and slant medium. Activation of bacterial strains is conducted at a humidity level of 60% and 25° C. (for aspergillus) or 37° C. (for candida). (2) 0.9% stroke-physiological saline solution comprising 0.5% Tween-80 is used to prepare bacterial suspension for experiment. Hemocytometer is utilized to adjust concentration of the bacterial suspension to 1-3×10^6 CFU/ml (0.5 McFarland units) to make stock solution in reserve at -20° C. During the sensitivity test, the RPMI-1640 liquid medium is diluted 1000 times to 1-3×10^3 CFU/ml. (3) The RPMI-1640 liquid is utilized as diluent to 10-fold dilute stock solution of peptides. […] The eleventh orifice is used as living control orifice, while the twelfth one as blank control. (4) The RPMI-1640 liquid is utilized as diluent to 10-fold dilute stock solution of FCZ and ICZ. […] Ditto for other operations.

aspergillus fumigatus = test: microbe, parasite or virus in culture; format: cell-based
Experimental: (§1) • (1) Test strains: monilia albicans (candida albicans), candida glabrata, candida krusei, candida tropicalis, aspergillus fumigatus and flavous. Antimicrobial peptides PL-13 (SEQ ID NO: 1) under test are supplied by Jiangsu ProteLight Pharmaceutical & Biotechnology Co., LTD. […] Activation of bacterial strains is conducted at a humidity level of 60% and 25° C. (for aspergillus) or 37° C. (for candida). (2) 0.9% stroke-physiological saline solution comprising 0.5% Tween-80 is used to prepare bacterial suspension for experiment. Hemocytometer is utilized to adjust concentration of the bacterial suspension to 1-3×10^6 CFU/ml (0.5 McFarland units) to make stock solution in reserve at -20° C. During the sensitivity test, the RPMI-1640 liquid medium is diluted 1000 times to 1-3×10^3 CFU/ml. (3) The RPMI-1640 liquid is utilized as diluent to 10-fold dilute stock solution of peptides. […] The eleventh orifice is used as living control orifice, while the twelfth one as blank control. (4) The RPMI-1640 liquid is utilized as diluent to 10-fold dilute stock solution of FCZ and ICZ. […] Ditto for other operations.

aspergillus flavous = test: microbe, parasite or virus in culture; format: cell-based
Experimental: as §1

[1] = test system: red cell suspension from healthy volunteers; test: Hemolytic activity test; format: cell-based, human; conditions: for Hemolytic activity, absorbancy (OD value) at 570 nm: 4 hours at 37° C., OD higher than 0.1 is hemolytic, n = 3
Experimental: (1) Samples are serial diluted with sterile PBS to 1000, 500, 250, 125, 64, 32, 16, 8, 4 μg/ml in turn and spread in 96-well plates, 100 μl per orifice.
(2) We use distilled water as positive control, sterile PBS as negative control and blank orifice with 200 μl PBS solution added. Each concentration above is made in triplicate.
(3) We take 3 ml whole blood from healthy volunteers and washed it with sterile PBS three times to prepare fresh 2% concentration red cell suspension. Then we added 100 μl red cell suspension into each orifice and made them cultured for 4 hours at 37° C. in the incubator. After centrifuged by plate-swashing centrifuge, the supernatant liquid is collected and measured absorbancy (OD value) at a wavelength of 570 nm. Then we compared the hemolytic efficiency of these concentrations.
(4) According to the documents standard, OD value which is higher than 0.1 is hemolytic concentration.

Salmonella typhimurium = test: microbe, parasite or virus in culture; format: cell-based; conditions: murium
Experimental: (§2) The experimental strains are 37 standard strains preserved in lab and clinical isolated bacteria, including drug-resistant bacteria and quality-control bacteria selecting Staphylococcus aureus ATCC29213, Enterococcus faecalis ATCC29212, Escherichia coli ATCC25922, Pseudomonas aeruginosa ATCC27853 and klebsiella pneumoniae ATCC700603.
(§3) (1) Sensitivity test is conducted with two-fold agar dilution method and Denlay multipoint inoculator. Test bacteria are cultured with nutrient broth and brain heart infusion.
(§4) (2) The drug is double diluted into different concentration with MH broth after dissolved and then placed in the plate respectively.
(§5) (3) After dissolved, MH agar culture medium are injected into the plate with drug quantitatively and mixed to make the final concentration of drug are 0.03, 0.06, 0.125, . . . , 128 μg/ml respectively.
(§6) (4) After solidification of the culture medium in the plate, test bacteria (10^4CFU/point) are inoculated by multipoint inoculator and cultured for 18 hours at constant 35° C. Then observe the results.

[2] = test system: Staphylococcus epidermidis; test: microbe, parasite or virus in culture; format: cell-based
Experimental: as §2, §3, §4, §5, §6

Feilaoti citrobacter = test: microbe, parasite or virus in culture; format: cell-based
Experimental: as §2, §3, §4, §5, §6

Shigella sonnei = test: microbe, parasite or virus in culture; format: cell-based; conditions: Shigella sonnei strains 51592
Experimental: as §2, §3, §4, §5, §6

Serratia marcescens = test: microbe, parasite or virus in culture; format: cell-based
Experimental: as §2, §3, §4, §5, §6

Enterobacter cloacae = test: microbe, parasite or virus in culture; format: cell-based
Experimental: as §2, §3, §4, §5, §6

Shigella = test: microbe, parasite or virus in culture; format: cell-based
Experimental: as §2, §3, §4, §5, §6

[3] = test system: Acinetobacter calcoaceticus; test: microbe, parasite or virus in culture; format: cell-based
Experimental: as §2, §3, §4, §5, §6

Shigella flexneri = test: microbe, parasite or virus in culture; format: cell-based
Experimental: as §2, §3, §4, §5, §6

Proteus vulgaris = test: microbe, parasite or virus in culture; format: cell-based
Experimental: as §2, §3, §4, §5, §6

Escherichia coli = test: microbe, parasite or virus in culture; format: cell-based; conditions: 08-5 (ESBLs) Extended Spectyumβ-lactamase
Experimental: as §2, §3, §4, §5, §6

Enterobacter aerogenes = test: microbe, parasite or virus in culture; format: cell-based
Experimental: as §2, §3, §4, §5, §6

Typhoid bacillus H901 = test: microbe, parasite or virus in culture; format: cell-based
Experimental: as §2, §3, §4, §5, §6

Staphylococcus aureus = test: microbe, parasite or virus in culture; format: cell-based
Experimental: as §2, §3, §4, §5, §6

PL-43 (SEQ ID NO: 24) = test: RP-HPLC temperature profiling 5-80 C, normalised to random coil peptide C; self-association of the peptide with itself
PL-51 (SEQ ID NO: 30) = test: as above
PL-40 (SEQ ID NO: 18) = test: as above
PL-34 (SEQ ID NO: 6) = test: as above
PL-18 (SEQ ID NO: 1) = test: as above

## Ac-FKKLKKLFSKLLNLK-NH2 [PL-26]
Candida krusei
  Minimal inhibitory concentration: 8 µg/mL
Aspergillus fumigatus
  Minimal inhibitory concentration: 32 µg/mL
Aspergillus flavous
  Minimal inhibitory concentration: >64 µg/mL
[1]; peptide 7.8125 μg/ml
  Hemolytic activity, absorbancy (OD value) at 570 nm: 0.020
[1]; peptide 15.625 μg/ml
  Hemolytic activity, absorbancy (OD value) at 570 nm: 0.047
[1]; peptide 31.25 μg/ml
  Hemolytic activity, absorbancy (OD value) at 570 nm: 0.057
[1]; peptide 62.5 μg/ml
  Hemolytic activity, absorbancy (OD value) at 570 nm: 0.068
[1]; peptide 125 μg/ml
  Hemolytic activity, absorbancy (OD value) at 570 nm: 0.075
[1]; peptide 250 μg/ml
  Hemolytic activity, absorbancy (OD value) at 570 nm: 0.089
[1]; peptide 500 μg/ml
  Hemolytic activity, absorbancy (OD value) at 570 nm: 0.121
[1]; peptide 1000 μg/ml
  Hemolytic activity, absorbancy (OD value) at 570 nm: 0.327
[1]; summary of Table 9
  hemolytic toxicity (in words): little hemolytic toxicity
Salmonella typhimurium
  MIC: 5.3 µM
[2]
  MIC: 0.7 µM
[2]; 08-17 (MSSE) Meticillin susceptible staphylococcus epidermidis
  MIC: 2.7 µM
[2]; 08-18 (MRSE) Methicillin-resistant staphylococcus epidermidis
  MIC: 2.7 µM
Feilaoti citrobacter
  MIC: 2.7 µM
Shigella sonnei
  MIC: 1.3 µM
Serratia marcescens
  MIC: 0.02 µM
Enterobacter cloacae
  MIC: 1.7 µM
Shigella
  MIC: 0.3 µM
[3]
  MIC: 6.7 µM
Shigella flexneri
  MIC: 1.3 µM
Proteus vulgaris
  MIC: 6.7 µM
Escherichia coli
  MIC: 1.3 µM
Enterobacter aerogenes
  MIC: 1.3 µM
Typhoid bacillus H901
  MIC: 2.7 µM
Staphylococcus aureus; 08-49(MSSA) Meticillin susceptible staphylococcus aureus
  MIC: 1.3 µM
Staphylococcus aureus; 08-52(MRSA) Methicillin-resistant staphylococcus aureus
  MIC: 1.3 µM
Staphylococcus aureus; Staphylococcus aureus ATCC25923
  MIC: 1.3 µM
Staphylococcus aureus; Staphylococcus aureus ATCC29213
  MIC: 1.3 µM
Staphylococcus aureus; strain 15 (listed under Staphylococcus aureus)
  MIC: 1.3 µM

## [dF][dK][dK][dF][dK][dK][dL][dL][dS][dK][dL][dW][dN][dW][dK] [PL-43 (SEQ ID NO: 24)]
PL-43 (SEQ ID NO: 24)
  PA (self-association parameter): 1.65 min

## [dL][dF][dK][dK][dL][dK][dK][dL][dF][dS][dK][dL][dW][dN][dW][dK] [PL-51 (SEQ ID NO: 30)]
PL-51 (SEQ ID NO: 30)
  PA (self-association parameter): 1.63 min

## [dK][dL][dK][dK][dL][dF][dS][dK][dL][dW][dN][dW][dK] [PL-40 (SEQ ID NO: 18)]
PL-40 (SEQ ID NO: 18)
  PA (self-association parameter): 0.55 min

## [dF][dK][dK][dL][dK][dK][dK][dF][dS][dK][dL][dW][dN][dW][dK] [PL-34 (SEQ ID NO: 6)]
PL-34 (SEQ ID NO: 6)
  PA (self-association parameter): 0.81 min

B1: PL-18 (SEQ ID NO: 1) (peptide)
peptide: Ac-[dF][dK][dK][dL][dK][dK][dL][dF][dS][dK][dL][dW][dN][dW][dK]-NH2
SMILES: CC(=O)N[C@H](Cc1ccccc1)C(=O)N[C@H](CCCCN)C(=O)N[C@H](CCCCN)C(=O)N[C@H](CC(C)C)C(=O)N[C@H](CCCCN)C(=O)N[C@H](CCCCN)C(=O)N[C@H](CC(C)C)C(=O)N[C@H](Cc1ccccc1)C(=O)N[C@H](CO)C(=O)N[C@H](CCCCN)C(=O)N[C@H](CC(C)C)C(=O)N[C@H](Cc1c[nH]c2ccccc12)C(=O)N[C@H](CC(N)=O)C(=O)N[C@H](Cc1c[nH]c2ccccc12)C(=O)N[C@H](CCCCN)C(N)=O
PL-18 (SEQ ID NO: 1)
  PA (self-association parameter): 0.56 min
